Experiments:
[1] = tested on: antibodies in sera from SARS patients (sera 1a, 1b, 2, 6, 37, 62, London, SARS-yellow, SARS-green); assay type: binding, human; set-up: Binding of serum 6 to linear peptides of protein X1 of SARS-CoV Urbani / Binding of serum 37 to linear peptides of protein X1 of SARS-CoV Urbani / Binding of serum 6 to looped/cyclic peptide (PEPSCAN-ELISA) / Binding of serum 37 to looped/cyclic peptide (PEPSCAN-ELISA) / Binding of serum 37 to looped/cyclic peptides of protein X1 of SARS-CoV Urbani / Binding of serum 6 to linear peptides of protein X2 / Binding of serum 37 to linear peptides of protein X2 / Binding of serum 37 to looped/cyclic peptides of protein X2 of SARS-CoV Urbani / Binding of serum 6 to linear peptides of protein M of SARS-CoV Urbani / Binding of serum 37 to linear peptides of protein M of SARS-CoV Urbani / Binding of serum 6 to looped/cyclic peptides of protein M of SARS-CoV Urbani / Binding of serum 37 to looped/cyclic peptides of protein M of SARS-CoV Urbani / Binding of serum 6 to linear peptides of protein X3 of SARS-CoV Urbani / Binding of serum 37 to linear peptides of protein X3 of SARS-CoV Urbani / Binding of serum 37 to looped/cyclic peptides of protein X3 of SARS-CoV Urbani / Binding of serum 6 to linear peptides of protein X4 of SARS-CoV Urbani / Binding of serum 37 to linear peptides of protein X4 of SARS-CoV Urbani / Binding of serum 37 to looped/cyclic peptides of protein X4 of SARS-CoV Urbani / Binding of serum 6 to linear peptides of protein X5 of SARS-CoV Urbani / Binding of serum 37 to linear peptides of protein X5 of SARS-CoV Urbani / Binding of serum 37 to looped/cyclic peptides of protein X5 of SARS-CoV Urbani / Binding of serum 6 to linear peptides of protein N of SARS-CoV Urbani / Binding of serum 37 to linear peptides of protein N of SARS-CoV Urbani / Binding of serum 6 to linear peptide (PEPSCAN-ELISA) / Binding of serum 1a to looped/cyclic peptides of protein N of SARS-CoV Urbani / Binding of serum 1b to looped/cyclic peptides of protein N of SARS-CoV Urbani / Binding of serum 2 to looped/cyclic peptides of protein N of SARS-CoV Urbani / Binding of serum 6 to looped/cyclic peptides of protein N of SARS-CoV Urbani / Binding of serum 37 to looped/cyclic peptides of protein N of SARS-CoV Urbani / Binding of serum 62 to looped/cyclic peptides of protein N of SARS-CoV Urbani / Binding of serum London to looped/cyclic peptides of protein N of SARS-CoV Urbani / Binding of serum SARS-green to looped/cyclic peptides of protein N of SARS-CoV Urbani: unit not given here
[2] = tested on: control sera (pooled serum of ten healthy LUMC hospital workers; commercial negative donor pooled serum from the Dutch bloodbank); assay type: binding, human; set-up: Binding of Control serum LUMC to linear peptides / Binding of Control serum Blood-bank to linear peptides / Binding of Control serum LUMC to looped peptides / Binding of Control Serum Blood-Bank to Looped peptides / Binding of Control serum LUMC to linear peptides of the protein M of SARS-CoV Urbani / Binding of Control serum Blood-bank to linear peptides of the protein M of SARS-CoV Urbani / Binding of Control serum LUMC to looped peptides of the protein M of SARS-CoV Urbani / Binding of Control Serum Blood-Bank to Looped peptides of the protein M of SARS-CoV Urbani: unit not given here
[3] = tested on: rabbit serum obtained by immunizing a rabbit with the SARS-CoV strain Frankfurt 1; assay type: binding; set-up: Binding of a rabbit serum to linear peptides / Binding of a rabbit serum to looped peptides / Rabbit serum linear peptides / Rabbit serum looped peptides / Binding of a rabbit serum to linear peptides of protein N of SARS-CoV Urbani (Rabbit serum linear peptides) / Binding of a rabbit serum to looped/cyclic peptides of protein N of SARS-CoV Urbani (Rabbit serum looped peptides): unit not given here

With ENATFFIFNKLVKDP the “Binding of serum 1a to linear peptides of protein X1 of SARS-CoV Urbani” value [1] was 0.6, the “Binding of serum 1a to looped/cyclic peptides of protein X1 of SARS-CoV Urbani” value [1] was 0.4 and the “Binding of serum 1b to linear peptides of protein X1 of SARS-CoV Urbani” value [1] was 0.4. For the same sequence, the “Binding of serum 1b to looped/cyclic peptides of protein X1 of SARS-CoV Urbani” value [1] was 0.3, the “Binding of serum 2 to linear peptides of protein X1 of SARS-CoV Urbani” value [1] was 0.5 and the “Binding of serum 2 to looped/cyclic peptides of protein X1 of SARS-CoV Urbani” value [1] was 0.5. For the same sequence, the “Binding of serum 6 to linear peptides of protein X1 of SARS-CoV Urbani” value [1] was 0.4, the “Binding of serum 6 to looped/cyclic peptides of protein X1 of SARS-CoV Urbani” value [1] was 0.4 and the “Binding of serum 37 to linear peptides of protein X1 of SARS-CoV Urbani” value [1] was 0.5. For the same sequence, the “Binding of serum 37 to looped/cyclic peptides of protein X1 of SARS-CoV Urbani” value [1] was 0.4, the “Binding of serum 62 to linear peptides of protein X1 of SARS-CoV Urbani” value [1] was 0.4 and the “Binding of serum 62 to looped/cyclic peptides of protein X1 of SARS-CoV Urbani” value [1] was 0.5. The “Binding of serum London to linear peptides of protein X1 of SARS-CoV Urbani” value [1] was 0.2, the “Binding of serum London to looped/cyclic peptides of protein X1 of SARS-CoV Urbani” value [1] was 0.2 and the “Binding of serum SARS-green to linear peptides of protein X1 of SARS-CoV Urbani” value [1] was 0.0. The “Binding of serum SARS-green to looped/cyclic peptides of protein X1 of SARS-CoV Urbani” value [1] was 0.2, the “Binding of serum SARS-yellow to linear peptides of protein X1 of SARS-CoV Urbani” value [1] was 0.2 and the “Binding of serum SARS-yellow to looped/cyclic peptides of protein X1 of SARS-CoV Urbani” value [1] was 0.2. The “Binding of Control Serum Blood-Bank to Looped peptides” value [2] was 0.7, the “Binding of Control serum Blood-bank to linear peptides” value [2] was 0.5 and the “Binding of Control serum LUMC to linear peptides” value [2] was 0.4. For the same sequence, the “Binding of Control serum LUMC to looped peptides” value [2] was 0.4, the “Binding of a rabbit serum to linear peptides” value [3] was 0.1 and the “Binding of a rabbit serum to looped peptides” value [3] was 0.5.
With EQWNLVIGFLFLAWI the “Binding of serum 1a to linear peptides of protein M of SARS-CoV Urbani” value [1] was 0.7, the “Binding of serum 1a to looped/cyclic peptides of protein M of SARS-CoV Urbani” value [1] was 0.7 and the “Binding of serum 1b to linear peptides of protein M of SARS-CoV Urbani” value [1] was 0.5. The “Binding of serum 1b to looped/cyclic peptides of protein M of SARS-CoV Urbani” value [1] was 0.6, the “Binding of serum 2 to linear peptides of protein M of SARS-CoV Urbani” value [1] was 0.5 and the “Binding of serum 2 to looped/cyclic peptides of protein M of SARS-CoV Urbani” value [1] was 0.6. For the same sequence, the “Binding of serum 6 to linear peptides of protein M of SARS-CoV Urbani” value [1] was 0.5, the “Binding of serum 6 to looped/cyclic peptides of protein M of SARS-CoV Urbani” value [1] was 0.4 and the “Binding of serum 37 to linear peptides of protein M of SARS-CoV Urbani” value [1] was 0.4. The “Binding of serum 37 to looped/cyclic peptides of protein M of SARS-CoV Urbani” value [1] was 0.7, the “Binding of serum 62 to linear peptides of protein M of SARS-CoV Urbani” value [1] was 0.5 and the “Binding of serum 62 to looped/cyclic peptides of protein M of SARS-CoV Urbani” value [1] was 0.7. The “Binding of serum London to linear peptides of protein M of SARS-CoV Urbani” value [1] was 0.4, the “Binding of serum London to looped/cyclic peptides of protein M of SARS-CoV Urbani” value [1] was 0.2 and the “Binding of serum SARS-green to linear peptides of protein M of SARS-CoV Urbani” value [1] was 0.4. For the same sequence, the “Binding of serum SARS-green to looped/cyclic peptides of protein M of SARS-CoV Urbani” value [1] was 0.4, the “Binding of serum SARS-yellow to linear peptides of protein M of SARS-CoV Urbani” value [1] was 0.3 and the “Binding of serum SARS-yellow to looped/cyclic peptides of protein M of SARS-CoV Urbani” value [1] was 0.6. For the same sequence, the “Binding of Control Serum Blood-Bank to Looped peptides of the protein M of SARS-CoV Urbani” value [2] was 0.6, the “Binding of Control serum Blood-bank to linear peptides of the protein M of SARS-CoV Urbani” value [2] was 0.5 and the “Binding of Control serum LUMC to linear peptides of the protein M of SARS-CoV Urbani” value [2] was 0.4. The “Binding of Control serum LUMC to looped peptides of the protein M of SARS-CoV Urbani” value [2] was 0.7, the “Rabbit serum linear peptides” value [3] was 0.2 and the “Rabbit serum looped peptides” value [3] was 0.4.

Source: US20070128217A1 (priority 2003, published 2007)
